Measurements from patent publication US5891882A, “Benzopyranopyrrole and benzopyranopyridine α-1 adenergic compounds” (priority 1997, dated 1999).
Structures can show the parent of a compound that is named as a salt.

Columns and labels:
[1] = target: T1, α-1A adrenoreceptor (canine prostate smooth muscle) (Canis lupus, UniProt A0A8I3NK63); experiment: Functional antagonism: inhibition of phenylephrine-induced contraction of canine prostate strips; assay type: cell-based; conditions: Schild plot
T1 construct: antagonism of phenylephrine-induced contraction (pA2, Schild)
T1 sequence (A0A8I3NK63 1-466): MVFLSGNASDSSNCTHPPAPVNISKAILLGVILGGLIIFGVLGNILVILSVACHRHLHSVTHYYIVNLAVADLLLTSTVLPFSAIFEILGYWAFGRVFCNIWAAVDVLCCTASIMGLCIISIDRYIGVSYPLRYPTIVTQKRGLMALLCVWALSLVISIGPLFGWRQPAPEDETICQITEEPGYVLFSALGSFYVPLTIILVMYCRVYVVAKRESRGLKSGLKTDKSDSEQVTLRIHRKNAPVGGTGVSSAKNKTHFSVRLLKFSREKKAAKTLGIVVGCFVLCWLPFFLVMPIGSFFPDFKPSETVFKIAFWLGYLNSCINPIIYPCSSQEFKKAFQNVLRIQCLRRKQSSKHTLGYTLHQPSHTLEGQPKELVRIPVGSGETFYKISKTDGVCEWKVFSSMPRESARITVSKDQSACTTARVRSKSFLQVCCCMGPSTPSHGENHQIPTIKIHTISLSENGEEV
Text: Canine prostate strips were used in vitro as previously described (Hieble, J. P., Boyce, Caine, M., Fed Proc., 45: 2609-2614 (1986)), to determine antagonist potencies phenylephrine-induced contractions.
(§1) Functional assays indicative of pharmacologically defined α-1 adrenoreceptors were used to further characterize compounds. Inhibition of phenylephrine (PE)-induced contraction of canine prostate smooth muscle can be correlated with α-1A adrenoreceptor activation. […] For each of these models, agonist dose response curves were repeated against increasing concentrations of test agent to derive a Schild plot [log ([…]) against log (molarity of test agent)] to determine the pA2.
Canine prostate strips were used in vitro as previously described (Hieble, J. P., Boyce, A. J. and Caine, M., Fed. Proc., 45: 2609-2614 (1986)), to determine antagonist potencies against phenylephrine-induced contractions.

[2] = target: T2, α-1B adrenoreceptor (rat spleen) (Rattus norvegicus, UniProt P15823); experiment: Functional antagonism: inhibition of phenylephrine-induced contraction of rat spleen; assay type: cell-based; conditions: rat spleen, phenylephrine-induced contraction, Schild plot
T2 construct: from tissue; host or cells: rat spleen
T2 sequence (P15823 1-515): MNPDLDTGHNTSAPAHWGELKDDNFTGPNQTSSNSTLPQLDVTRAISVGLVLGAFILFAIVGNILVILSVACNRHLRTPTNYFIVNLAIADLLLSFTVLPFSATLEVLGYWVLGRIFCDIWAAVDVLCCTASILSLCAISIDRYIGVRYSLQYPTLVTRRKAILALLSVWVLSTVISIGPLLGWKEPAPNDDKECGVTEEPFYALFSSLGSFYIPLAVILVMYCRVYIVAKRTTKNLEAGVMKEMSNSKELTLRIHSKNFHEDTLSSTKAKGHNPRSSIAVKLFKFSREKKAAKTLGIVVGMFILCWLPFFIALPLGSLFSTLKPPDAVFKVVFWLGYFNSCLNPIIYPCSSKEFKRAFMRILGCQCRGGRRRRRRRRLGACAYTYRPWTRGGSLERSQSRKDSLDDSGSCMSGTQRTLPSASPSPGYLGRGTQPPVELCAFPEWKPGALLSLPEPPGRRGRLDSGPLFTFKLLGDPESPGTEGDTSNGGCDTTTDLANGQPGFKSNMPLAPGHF
Text: as §1

α-1 adrenoreceptor = conditions: cited from earlier work; for dose limiting side effects: BPH treatment; for urinary flow rates and subjective symptom scores: longer term studies, BPH; for clinical efficacy in BPH: non-selective α-1 blockers
[3] = target: T3, α-1 Adrenoceptors (Rat Aorta) (Rattus norvegicus, UniProt P23944); experiment: Functional antagonism at α-1 adrenoceptors, rat aorta; assay type: cell-based; conditions: for Kb: read-out: In Vitro Characterization (pA2) Rat Aorta (converted)
T3 construct: Rat Aorta; from tissue; host or cells: rat aorta
T3 sequence (P23944 1-561): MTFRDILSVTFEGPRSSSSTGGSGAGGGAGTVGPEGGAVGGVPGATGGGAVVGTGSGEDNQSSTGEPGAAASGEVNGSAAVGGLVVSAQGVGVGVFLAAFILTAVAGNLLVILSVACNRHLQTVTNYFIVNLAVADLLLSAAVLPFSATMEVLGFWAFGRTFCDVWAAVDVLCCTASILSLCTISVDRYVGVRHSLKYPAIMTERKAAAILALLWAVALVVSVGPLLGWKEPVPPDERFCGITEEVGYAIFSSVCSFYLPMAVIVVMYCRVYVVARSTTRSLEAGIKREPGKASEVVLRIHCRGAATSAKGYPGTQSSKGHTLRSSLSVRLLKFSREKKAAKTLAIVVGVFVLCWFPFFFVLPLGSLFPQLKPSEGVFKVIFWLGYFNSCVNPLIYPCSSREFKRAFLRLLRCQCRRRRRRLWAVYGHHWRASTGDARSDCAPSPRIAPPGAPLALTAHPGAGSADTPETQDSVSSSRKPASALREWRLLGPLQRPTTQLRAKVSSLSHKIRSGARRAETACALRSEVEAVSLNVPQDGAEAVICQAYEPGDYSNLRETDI
Text: as §1

Row | Compound | In Vitro Characterization (pA2) Rat Spleen [2] | Kb [3] | other results
1 | COc1cccc2c1OC[C@H]1CN(CCn3c(=O)[nH]c4c(sc5ccccc54)c3=O)C[C@@H]21.Cl (racemic) [Example 67, 3-[2-((±)-cis-6-Methoxy-1,2,3,3a,4,9b-hexahydro-[1]-benzopyrano[3,4-c]pyrrol-2-yl)ethyl]-[1]-benzthieno[3,2-d]pyrimidine-2,4(1H,3H)-dione hydrochloride] | 6.83 |  | In Vitro Characterization (pA2) Dog Prostate [1]: 7.33
2 | COc1cc2[nH]c(=O)n(CCCCN3C[C@@H]4COc5ccccc5[C@@H]4C3)c(=O)c2cc1OC.Cl (racemic) [Example 81, 3-[4-((±)-cis-1,2,3,3a,4,9b-hexahydro-[1]-benzopyrano[3,4-c]pyrrol-2-yl)butyl]-6,7-dimethoxy-quinazoline-2,4(1H,3H)-dione hydrochloride] | 7.41 |  | 
3 | COc1cc2nc(N3CCN(C(=O)C4COc5ccccc5O4)CC3)nc(N)c2cc1OC (stereo not drawn) [Doxazosin, doxazosin] |  |  | dose limiting side effects (α-1 adrenoreceptor): hypotension, dizziness, and muscle fatigue; urinary flow rates and subjective symptom scores (α-1 adrenoreceptor): significant improvements in urinary flow rates and subjective symptom scores; clinical efficacy in BPH (α-1 adrenoreceptor): Clinical efficacy
4 | COc1cccc2c1[C@@H]1CN(CCCCn3c(=O)[nH]c4c(sc5ncccc54)c3=O)C[C@@H]1CO2 [Example 34, hydrochloride] | 8.12 | 0.646 nM | 
5 | COc1cccc2c1[C@@H]1CN(CCCCn3c(=O)[nH]c4c(sc5ncc(-c6ccccc6)nc54)c3=O)C[C@@H]1CO2 [Example 39, 3-[4-((3aR,9bR)-cis-9-Methoxy-1,2,33a,4,9b-hexahydro-[1]-benzopyrano[3,4-c]pyrrol-2-yl)butyl]-8-phenyl-pyrazino[2',3':4,5]thieno[3,2-d]pyrimidine-2,4(1H,3H)-dione hydrochloride] | 6.83 | 12.9 nM | In Vitro Characterization (pA2) Dog Prostate [1]: 8.52
6 | COc1cccc2c1[C@@H]1CN(CCCCn3c(=O)[nH]c4c(sc5ncccc54)c3=O)C[C@H]1CO2 [Example 44, 3-[4-((3aS,9bR)-trans-9-Methoxy-1,2,3,3a,4,9b-hexahydro-[1]-benzopyrano[3,4-c]pyrrol-2-yl)butyl]-pyrido[3',2':4,5]thieno[3,2-d]pyrimidine-2,4(1H,3H)-dione hydrochloride] | 8.35 | 0.0398 nM | 
7 | COc1ccc2c(n1)sc1c(=O)n(CCCCN3C[C@H]4COc5cccc(OC)c5[C@@H]4C3)c(=O)[nH]c12 [Example 46, 3-[4-((3aS,9bR)-trans-9-Methoxy-1,2,3,3a,4,9b-hexahydro-[1]-benzopyrano[3,4-c]pyrrol-2-yl)butyl]-7-methoxy-pyrido[3',2':4,5]thieno[3,2-d]pyrimidine-2,4(1H,3H)-dione hydrochloride] | 8.12 | 0.155 nM | 
8 | COc1cccc2c1[C@@H]1CN(CCCCn3c(=O)[nH]c4c(sc5nc(Cl)ccc54)c3=O)C[C@H]1CO2 [Example 47, 3-[4-((3aS,9bR)-trans-9-Methoxy-1,2,3,3a,4,9b-hexahydro-[1]-benzopyrano[3,4-c]pyrrol-2-yl)butyl]-7-chloro-pyrido[3',2':4,5]thieno[3,2-d]pyrimidine-2,4(1H,3H)-dione hydrochloride] | 7.95 | 0.204 nM | 
9 | COc1cccc2c1[C@@H]1CN(CCCCn3c(=O)[nH]c4c(sc5ncc(-c6ccccc6)nc54)c3=O)C[C@H]1CO2 [Example 50, 3-[4-((3aS,9bR)-trans-9-Methoxy-1,2,3,3a,4,9b-hexahydro-[1]-benzopyrano[3,4-c]pyrrol-2-yl)butyl]-8-phenyl-pyrazino[2',3':4,5]thieno[3,2-d]pyrimidine-2,4(1H,3H)-dione hydrochloride] | 6.5 | 0.389 nM | In Vitro Characterization (pA2) Dog Prostate [1]: 8.45
10 | COc1cccc2c1[C@@H]1CN(CCCCn3c(=O)[nH]c4c(sc5c(Cl)nccc54)c3=O)C[C@H]1CO2 [Example 54] | 7.31 |  | 
11 | COc1cc2nc(N3CCN(C(=O)C4CCCO4)CC3)nc(N)c2cc1OC (stereo not drawn) [Terazosin, terazosin] |  |  | dose limiting side effects (α-1 adrenoreceptor): hypotension, dizziness, and muscle fatigue; urinary flow rates and subjective symptom scores (α-1 adrenoreceptor): significant improvements in urinary flow rates and subjective symptom scores; clinical efficacy in BPH (α-1 adrenoreceptor): Clinical efficacy; In Vitro Characterization (pA2) Rat Aorta [3]: 8.65
12 | O=C(NC1CCN(CCc2c[nH]c3ccccc23)CC1)c1ccccc1 [indoramin] |  |  | dose limiting side effects (α-1 adrenoreceptor): hypotension, dizziness, and muscle fatigue; urinary flow rates and subjective symptom scores (α-1 adrenoreceptor): significant improvements in urinary flow rates and subjective symptom scores
